Converted amounts (≈) assume the structure as drawn.
Legend:
[1] = molecular target: T1, Phospho-N-acetylmuramoyl-pentapeptide-transferase (Staphylococcus aureus, UniProt P0C1R8); assay: Inhibition of Staphylococcus aureus MraY assessed as reduction of dansylated lipid I formation using UDP-MurNAc-dansylpentapeptide as substrate incubated for 3 to 4 hrs by fluorescence based analysis
T1 sequence (P0C1R8 whole entry): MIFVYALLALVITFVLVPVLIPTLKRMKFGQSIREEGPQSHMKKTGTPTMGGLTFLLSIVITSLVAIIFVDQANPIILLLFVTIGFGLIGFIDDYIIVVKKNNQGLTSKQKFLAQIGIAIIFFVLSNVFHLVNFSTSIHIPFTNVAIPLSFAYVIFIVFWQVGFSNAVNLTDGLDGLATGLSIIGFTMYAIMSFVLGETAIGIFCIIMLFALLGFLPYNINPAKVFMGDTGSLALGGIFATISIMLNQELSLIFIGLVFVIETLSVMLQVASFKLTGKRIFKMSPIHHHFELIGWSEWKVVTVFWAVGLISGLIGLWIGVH

[2] = system: Mycobacterium tuberculosis; assay: Antibacterial activity against Mycobacterium tuberculosis H37Rv incubated for 14 days measured by microplate reader method; assay type: functional; conditions: 336 h, time 14 day
[3] = system: Mycolicibacterium smegmatis; assay: Antibacterial activity against Mycobacterium smegmatis mc2 155 incubated for 4 days measured by microplate reader method; assay type: functional; conditions: mc2 155, 96 h, time 4 day
[4] = Antibacterial activity against Mycobacterium avium subsp. avium ATCC 25291 incubated for 11 days measured by microplate reader method; assay type: functional; conditions: ATCC 25291, 264 h, time 11 day
[5] = Antibacterial activity against Mycobacterium abscessus subsp. abscessus ATCC 19977 incubated for 5 days measured by microplate reader method; assay type: functional; conditions: Mycobacteroides abscessus, ATCC 19977, 120 h; time 5 day
[6] = Inhibition of bacterial MraY; design: species or system Bacteria
[7] = system: Mycolicibacterium smegmatis; assay: Antibacterial activity against Mycobacterium smegmatis; assay type: functional

Row | Structure (SMILES) | IC50 [1] [µM] | MIC50 [2] [µg/mL] | MIC50 [3] [µg/mL] | MIC50 [4] [µg/mL] | MIC50 [5] [µg/mL] | IC50 [6] [µg/mL] | MIC [7] [µg/mL]
1 | CO[C@H]1[C@@H](O)[C@H](n2ccc(=O)[nH]c2=O)O[C@@H]1[C@H](C#N)O[C@H]1OC(C(=O)N[C@H]2CCCCNC2=O)=C[C@H](O)[C@@H]1O | 12 | > 32 | > 32 | > 32 | > 64 |  | 
2 | NC(=O)[C@H](O[C@H]1OC(C(=O)N[C@H]2CCCCNC2=O)=C[C@H](O)[C@@H]1O)[C@H]1O[C@@H](n2ccc(=O)[nH]c2=O)[C@H](O)[C@@H]1O | 2 | > 32 | 32 (≈ 57.6 µM) | 16 (≈ 28.8 µM) | ≥ 64 |  | 
3 | CO[C@H]1[C@@H](O)[C@H](n2ccc(=O)[nH]c2=O)O[C@@H]1[C@@H](O[C@H]1OC(C(=O)N[C@H]2CCCCNC2=O)=C[C@H](O)[C@@H]1O)C(N)=O [CAPURAMYCIN] | 0.33 | 32 (≈ 56.2 µM) | 32 (≈ 56.2 µM) | 8 (≈ 14 µM) | 64 (≈ 112 µM) | 0.01 (≈ 0.0176 µM) | 6.25 (≈ 11 µM)
4 | CO[C@H]1[C@@H](O)[C@H](n2ccc(=O)[nH]c2=O)O[C@@H]1[C@H](O[C@H]1OC(C(=O)N[C@H]2CCCCNC2=O)=C[C@H](O)[C@@H]1O)C(N)=O | 10 | > 32 | > 32 | > 32 | ≥ 64 |  | 
5 | O=C(N[C@H]1CCCCNC1=O)C1=C[C@H](O)[C@H](O)[C@@H](OC[C@H]2O[C@@H](n3ccc(=O)[nH]c3=O)[C@H](O)[C@@H]2O)O1 | 76 | > 32 | > 32 | > 32 | 32 (≈ 62.4 µM) |  | 
